According to ChEMBL document CHEMBL4145521, “Regioselective synthesis of 3,4-diaryl-5-unsubstituted isoxazoles, analogues of natural cytostatic combretastatin A4” (Eur J Med Chem, 2018):

Assays:
Type in all cases: functional
[1] = tested on: NCI-H322M; assay: Cytotoxicity against human NCI-H322M cells assessed as cell growth at 0.1 uM incubated for 48 hrs by sulforhodamine B assay relative to control; conditions: read-out: Activity
[2] = tested on: NCI-H460; assay: Cytotoxicity against human NCI-H460 cells incubated for 48 hrs by sulforhodamine B assay; conditions: NCI-H460, 48 h
[3] = tested on: SF-295; assay: Cytotoxicity against human SF295 cells assessed as cell growth at 0.01 uM incubated for 48 hrs by sulforhodamine B assay relative to control; conditions: SF-295, 48 h, read-out: Activity
[4] = tested on: A549; assay: Cytotoxicity against human A549/ATCC cells incubated for 48 hrs by sulforhodamine B assay; conditions: A549, 48 h
[5] = tested on: HT-29; assay: Cytotoxicity against human HT-29 cells assessed as cell growth at 10 uM incubated for 48 hrs by sulforhodamine B assay relative to control; conditions: HT-29, 48 h, read-out: Activity
[6] = tested on: RXF 393; assay: Cytotoxicity against human RXF393 cells incubated for 48 hrs by sulforhodamine B assay; conditions: RXF 393, 48 h
[7] = tested on: SNB-75; assay: Cytotoxicity against human SNB75 cells assessed as cell growth at 0.1 uM incubated for 48 hrs by sulforhodamine B assay relative to control; conditions: SNB-75, 48 h, read-out: Activity
[8] = tested on: SW-620; assay: Cytotoxicity against human SW620 cells incubated for 48 hrs by sulforhodamine B assay; conditions: SW-620, 48 h
[9] = tested on: PC-3; assay: Cytotoxicity against human PC3 cells assessed as cell growth at 0.01 uM incubated for 48 hrs by sulforhodamine B assay relative to control; conditions: PC-3, 48 h, read-out: Activity
[10] = tested on: SN12C; assay: Cytotoxicity against human SN12C cells assessed as cell growth at 10 uM incubated for 48 hrs by sulforhodamine B assay relative to control; conditions: read-out: Activity
[11] = tested on: UACC-62; assay: Cytotoxicity against human UACC62 cells incubated for 48 hrs by sulforhodamine B assay; conditions: UACC-62, 48 h
[12] = tested on: HCC 2998; assay: Cytotoxicity against human HCC2998 cells assessed as cell growth at 1 uM incubated for 48 hrs by sulforhodamine B assay relative to control; conditions: HCC 2998, 48 h, read-out: Activity
[13] = tested on: RPMI-8226; assay: Cytotoxicity against human RPMI8226 cells assessed as cell growth at 0.1 uM incubated for 48 hrs by sulforhodamine B assay relative to control; conditions: RPMI-8226, 48 h, read-out: Activity
[14] = tested on: SK-MEL-2; assay: Cytotoxicity against human SK-MEL-2 cells assessed as cell growth at 0.01 uM incubated for 48 hrs by sulforhodamine B assay relative to control; conditions: SK-MEL-2, 48 h, read-out: Activity
[15] = tested on: HCT-116; assay: Cytotoxicity against human HCT116 cells assessed as cell growth at 0.1 uM incubated for 48 hrs by sulforhodamine B assay relative to control; conditions: HCT-116, 48 h, read-out: Activity
[16] = tested on: BT-549; assay: Cytotoxicity against human BT549 cells incubated for 48 hrs by sulforhodamine B assay; conditions: BT-549, 48 h
[17] = tested on: OVCAR-8; assay: Cytotoxicity against human OVCAR8 cells assessed as cell growth at 1 uM incubated for 48 hrs by sulforhodamine B assay relative to control; conditions: OVCAR-8, 48 h, read-out: Activity
[18] = tested on: NCI-H226; assay: Cytotoxicity against human NCI-H226 cells assessed as cell growth at 1 uM incubated for 48 hrs by sulforhodamine B assay relative to control; conditions: NCI-H226, 48 h, read-out: Activity
[19] = tested on: HCT-116; assay: Cytotoxicity against human HCT116 cells incubated for 48 hrs by sulforhodamine B assay; conditions: HCT-116, 48 h
[20] = tested on: RPMI-8226; assay: Cytotoxicity against human RPMI8226 cells assessed as cell growth at 0.01 uM incubated for 48 hrs by sulforhodamine B assay relative to control; conditions: RPMI-8226, 48 h, read-out: Activity
[21] = tested on: EKVX; assay: Cytotoxicity against human EKVX cells assessed as cell growth at 10 uM incubated for 48 hrs by sulforhodamine B assay relative to control; conditions: read-out: Activity
[22] = tested on: HOP-62; assay: Cytotoxicity against human HOP62 cells assessed as cell growth at 10 uM incubated for 48 hrs by sulforhodamine B assay relative to control; conditions: HOP-62, 48 h, read-out: Activity
[23] = tested on: NCI-H522; assay: Cytotoxicity against human NCI-H522 cells incubated for 48 hrs by sulforhodamine B assay; conditions: NCI-H522, 48 h
[24] = tested on: RPMI-8226; assay: Cytotoxicity against human RPMI8226 cells assessed as cell growth at 10 uM incubated for 48 hrs by sulforhodamine B assay relative to control; conditions: RPMI-8226, 48 h, read-out: Activity
[25] = tested on: CAKI-1; assay: Cytotoxicity against human Caki1 cells assessed as cell growth at 100 uM incubated for 48 hrs by sulforhodamine B assay relative to control; conditions: CAKI-1, 48 h, read-out: Activity
[26] = tested on: NCI-H226; assay: Cytotoxicity against human NCI-H226 cells assessed as cell growth at 0.1 uM incubated for 48 hrs by sulforhodamine B assay relative to control; conditions: NCI-H226, 48 h, read-out: Activity
[27] = tested on: MDA-MB-468; assay: Cytotoxicity against human MDA-MB-468 cells assessed as cell growth at 100 uM incubated for 48 hrs by sulforhodamine B assay relative to control; conditions: MDA-MB-468, 48 h, read-out: Activity
[28] = tested on: IGROV-1; assay: Cytotoxicity against human IGROV1 cells incubated for 48 hrs by sulforhodamine B assay; conditions: IGROV-1, 48 h
[29] = read-out: LC50 (the source's name)
[30] = read-out: pLC50 (the source's name) (converted)

COc1ccc(-c2nocc2-c2cc(OC)c(OC)c(OC)c2)cc1
growth at 0.1 µM [1]: 76% | GI50 ([2]; read-out: GI50): 0.0536 µM | CC50 [2, 29]: > 100 µM | TGI ([2]; read-out: TGI): 12.7 µM | GI50 ([2]; read-out: pGI50 (converted)): 0.0537 µM | CC50 [2, 30]: > 100 µM | TGI ([2]; read-out: pTGI (converted)): 12.6 µM | growth at 0.01 µM [3]: 84% | GI50 ([4]; read-out: GI50): 0.0869 µM | LC50 ([4]; read-out: LC50): > 100 µM | TGI ([4]; read-out: TGI): > 100 µM | GI50 ([4]; read-out: pGI50 (converted)): 0.0871 µM | LC50 ([4]; read-out: pLC50 (converted)): > 100 µM | TGI ([4]; read-out: pTGI): > 100 µM | growth at 10 µM [5]: 3% | GI50 ([6]; read-out: GI50): 0.243 µM | CC50 [6, 29]: > 100 µM | GI50 ([6]; read-out: pGI50 (converted)): 0.245 µM | CC50 [6, 30]: > 100 µM | growth at 0.1 µM [7]: 47% | GI50 ([8]; read-out: GI50): 0.0509 µM | CC50 [8, 29]: > 100 µM | TGI ([8]; read-out: TGI): > 100 µM | GI50 ([8]; read-out: pGI50 (converted)): 0.0513 µM | CC50 [8, 30]: > 100 µM | TGI ([8]; read-out: pTGI): > 100 µM | growth at 0.01 µM [9]: 99% | growth at 10 µM [10]: 34% | GI50 ([11]; read-out: GI50): 0.0557 µM | LC50 (concentration killing 50% of cells) ([11]; read-out: LC50): > 100 µM | TGI ([11]; read-out: TGI): 12.9 µM | GI50 ([11]; read-out: pGI50 (converted)): 0.0562 µM | LC50 (concentration killing 50% of cells) ([11]; read-out: pLC50 (converted)): > 100 µM | TGI ([11]; read-out: pTGI (converted)): 12.9 µM | growth at 1 µM [12]: 40% | growth at 0.1 µM [13]: 82% | growth at 0.01 µM [14]: 99% | growth at 0.1 µM [15]: 21% | GI50 ([16]; read-out: GI50): 0.176 µM | CC50 [16, 29]: > 100 µM | TGI ([16]; read-out: TGI): 18.9 µM | GI50 ([16]; read-out: pGI50 (converted)): 0.178 µM | CC50 [16, 30]: > 100 µM | TGI ([16]; read-out: pTGI (converted)): 19.1 µM | growth at 1 µM [17]: 27% | growth at 1 µM [18]: 75% | GI50 ([19]; read-out: GI50): 0.039 µM | LC50 (concentration killing 50% of cells) ([19]; read-out: LC50): > 100 µM | TGI ([19]; read-out: TGI): 14.7 µM | GI50 ([19]; read-out: pGI50 (converted)): 0.0389 µM | LC50 (concentration killing 50% of cells) ([19]; read-out: pLC50 (converted)): > 100 µM | TGI ([19]; read-out: pTGI (converted)): 14.8 µM | growth at 0.01 µM [20]: 100% | growth at 10 µM [21]: 32% | growth at 10 µM [22]: 35% | GI50 ([23]; read-out: GI50): 0.0225 µM | LC50 ([23]; read-out: LC50): > 100 µM | TGI ([23]; read-out: TGI): 0.0752 µM | GI50 ([23]; read-out: pGI50 (converted)): 0.0224 µM | LC50 ([23]; read-out: pLC50 (converted)): > 100 µM | TGI ([23]; read-out: pTGI (converted)): 0.0759 µM | growth at 10 µM [24]: 16% | growth at 100 µM [25]: 14% | growth at 0.1 µM [26]: 90% | growth at 100 µM [27]: -19% | GI50 ([28]; read-out: GI50): 0.346 µM | CC50 [28, 29]: > 100 µM | TGI ([28]; read-out: TGI): > 100 µM | GI50 ([28]; read-out: pGI50 (converted)): 0.347 µM | CC50 [28, 30]: > 100 µM | TGI ([28]; read-out: pTGI): > 100 µM
